Measured values from patent US10118903B2, “Aminotriazole-based KDM1A inhibitors as epigenetic modulators” (MUSC FOUNDATION FOR RESEARCH DEVELOPMENT, priority 2014, dated 2018).
Entries after “also recorded” stand apart in the source; their conditions may differ.

Columns and labels:
[1] = system: H3K4me2 levels in Calu 6 human anaplastic lung tumor cell line; experiment: H3K4 methylation in tumor cells by Western blot; format: cell-based; details: Calu 6 cells
Description: To verify that C1 and C15 have epigenetic effects in tumor cells, changes in H3K4 methylation in the Calu 6 human anaplastic lung tumor cell line were monitored, as shown in FIG. 4.
Following treatment, cells were washed twice in sterile filtered cold 1×PBS. Cells were then lysed in 200 μL of lysis buffer (20 mM Tris, 150 mM NaCl, 1 mM EDTA, 1 mM EGTA, 1 mM β-glycerol, 2.5 mM sodium pyrophosphate, and 1% Triton X-100) Protease and phosphatase inhibitors were added to these buffers (1:100 dilutions of phosphatase inhibitor cocktail I and II and protease inhibitor cocktail; Sigma). The cells were then incubated on ice for 15 min, and insoluble material was pelleted by centrifugation at 4° C.
Protein concentrations were determined by Pierce BCA protein assay kit (Thermo Sci, Product #23225). Cell lysates were subjected to SDS-PAGE, and Western blot analysis was performed with the appropriate antibodies. Primary antibodies against H3K4me2, H3K4me1, and LSD1 were from Cell Signaling; Histone H3 primary antibody was from Millipore. Proteins were visualized by enhanced chemiluminescence (ECL).

mouse heart = experiment: Langendorff isolated heart model, ischemia/reperfusion; details: versus vehicle
Source text: (§1) In the Langendorff preparation, the heart is removed with preservation of a portion of the afferent and efferent blood vessels; it is then perfused in a reverse fashion via the aorta, usually with a nutrient rich, oxygenated solution (e.g. Krebs-Henseleit solution or Tyrode's solution). The backwards pressure causes the aortic valve to shut, forcing the solution into the coronary vessels, which normally supply the heart tissue with blood. This feeds nutrients and oxygen to the cardiac muscle, allowing it to continue beating for several hours after its removal from the animal. This is a useful preparation because it allows the addition of drugs (via the perfusate) and observation of their effect on the heart without the complications involved with in vivo experimentation, such as neuronal and hormonal effects from living animal (Broadley, K. J., 1970). A pressure transducer is inserted to measure a number of cardiac performance parameters including left ventricular developed pressure, left ventricular end diastolic pressure, heart rate, etc. Following the Langendorff procedure, the myocardium is cut into cross sections, and infarcted tissue is identified by the inability to take up stain; thus infarcted areas appear white, while healthy areas appear red.
The compounds described herein may be used to protect the myocardium from injury following an ischemic event. In FIG. 6, a mouse heart was subjected to ischemia by ligation of the afferent vessel in a Langendorff preparation, as described above. Prior to the induction of ischemia, hearts were either pre-treated with vehicle, verlindamycin or C1. […] In FIG. 8, the results of an experiment to measure infarcted tissue in a myocardial cross-section are shown. Results are expressed as a percentage of the area of infarct with respect to total surface area. […] The HDAC1/CoREST/LSD1 complex was pulled down with an LSD1 antibody and a Western blot for CoREST was performed.

murine myocardium = experiment: Infarct area in myocardial cross-section after induced myocardial ischemia; format: in vivo, mouse; details: 10 mg/kg; versus vehicle
Source text: as §1, with “Following the Langendorff procedure, the myocardium is cut into cross sections, and infarcted tissue is identified by the inability to take up stain; thus infarcted areas appear white, while healthy areas appear red.” left out
The compounds described herein may be used to protect the myocardium from injury following an ischemic event. […] Results are expressed as a percentage of the area of infarct with respect to total surface area. […]

[2] = system: HDAC1/CoREST/LSD1 complex; experiment: Pull-down of HDAC1/CoREST/LSD1 complex with HDAC1 antibody, Western blot for CoREST; format: cell-based; details: primary feline cardiomyocytes, 3 h, 5 μM
Source text: Co-immunoprecipitation (pull down) of intact protein complexes works by selecting an antibody that targets a known protein that is believed to be a member of a larger complex of proteins. By targeting this known member with an antibody it may become possible to pull the entire protein complex out of solution and thereby identify unknown members of the complex. This works when the proteins involved in the complex bind to each other tightly, making it possible to pull multiple members of the complex out of solution by latching onto one member with an antibody. This concept of pulling protein complexes out of solution is sometimes referred to as a “pull-down”. Co-immunoprecipitation is a powerful technique that is used regularly by molecular biologists to analyze protein-protein interactions. The co-repressor HDAC:CoREST:LSD1 complex was initially pulled down with an antibody for HDAC1 and a Western blot for CoREST was performed.

LSD1:CoREST complex = experiment: Pull-down of HDAC1/CoREST/LSD1 complex with LSD1 antibody, Western blot for CoREST; format: cell-based; details: primary feline cardiomyocytes, 3 h, 1 μM; LSD1 antibody pull-down
Description: Co-immunoprecipitation analysis for LSD1:CoREST complex following treatment from primary rat cardiomyocytes with 5 μM and 1 μM C1 was performed as described above. Lysates pulled down with LSD1 antibody and western blotted for CoREST (n=2).

[3] = target: human recombinant spermine oxidase (Homo sapiens, UniProt Q9NWM0); experiment: Inhibition of spermine oxidase; format: biochemical
Chain of human recombinant spermine oxidase (Q9NWM0 whole entry): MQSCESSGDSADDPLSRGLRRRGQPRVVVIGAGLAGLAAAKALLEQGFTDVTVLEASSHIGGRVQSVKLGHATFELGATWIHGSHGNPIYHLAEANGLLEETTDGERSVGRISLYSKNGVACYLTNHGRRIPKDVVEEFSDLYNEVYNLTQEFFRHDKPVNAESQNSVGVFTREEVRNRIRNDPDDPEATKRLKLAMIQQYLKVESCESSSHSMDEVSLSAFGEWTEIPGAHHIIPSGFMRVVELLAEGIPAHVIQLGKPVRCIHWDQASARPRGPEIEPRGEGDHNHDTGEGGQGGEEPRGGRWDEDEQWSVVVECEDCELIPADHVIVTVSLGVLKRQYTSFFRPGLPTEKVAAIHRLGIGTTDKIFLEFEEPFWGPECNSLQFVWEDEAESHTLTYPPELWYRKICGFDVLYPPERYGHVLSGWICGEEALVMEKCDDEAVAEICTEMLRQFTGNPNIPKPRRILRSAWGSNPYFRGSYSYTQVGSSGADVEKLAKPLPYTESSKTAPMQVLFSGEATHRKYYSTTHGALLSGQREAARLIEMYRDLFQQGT
Description: The assay procedure is very similar to the assay used for LSD1, except that the reaction is conducted by human recombinant spermine oxidase. the assay for C1 and related analogues was conducted as previously described (Goodwin et al., 2011).

human recombinant LSD1 = target: T1, human recombinant LSD1 (Homo sapiens, UniProt O60341); experiment: LSD1 inhibitor screening assay (Cayman Chemical kit, fluorometric); format: biochemical; details: 10 μM compound; Chembridge analogues table
T1 construct: purchased Cayman Chemical Item #700120
Description: LSD1 Inhibitor Screening Assay:
(§2) In short, 10 μM of compound was combined with the fluorometic substrate 10-acetyl-3,7-dihydroxyphenoxazine, horseradish peroxidase, human recombinant LSD1, and 100 μM dimethylated lysine at residue 4 [ARTK(diMe)[…]] (Seq. ID No: 1) for 30 mins at 37° C. Plates were read using an excitation wavelength of 535 nm and an emission wavelength of 590 nm with a SpectraMax M5 Microplate reader.

[4] = target: recombinant human LSD1/CoREST (Homo sapiens, UniProt O60341); experiment: IC50 determination by dose-response curve against recombinant LSD1/CoREST; format: biochemical
Description: Using a dose-response curve, the IC50 of C1 and C15 were calculated.
as §2

Structure (SMILES): Nc1nnc(NCc2c(Cl)cccc2Oc2ccccc2)[nH]1 [Compound C1, N^3-(2-chloro-6-phenoxybenzyl)-4H-1,2,4-triazole-3,5-diamine]
- effect on H3K4 methylation ([1]; 24 or 48 hours): did not appear to have a significant effect
- left ventricular end diastolic pressure (mouse heart; 1 hour pre-treatment with 1.0 μM): reduced to near-normal levels
- left ventricular developed pressure (mouse heart; pre-treatment before ischemia, after reperfusion): restored to nearly normal levels
- infarct area as a percentage of the total left ventricular area (murine myocardium): most effective in limiting the spread of infarct; also recorded: significantly more effective than treatment with vehicle
- association of HDAC1 and CoREST [2]: disrupted the association of HDAC1 and CoREST
- association between LSD1 and CoREST (LSD1:CoREST complex): disrupted the association between LSD1 and CoREST
- mode of inhibition of spermine oxidase [3]: competitive inhibitor
- inhibition of spermine oxidase compared with verlindamycin ([3]; assayed between 0.1 and 1.0 μM): improved inhibition of spermine oxidase over verlindamycin
- IC50 ([3]; assayed between 0.1 and 1.0 μM, read-out: IC50 against spermine oxidase (SMOX)): 0.04 µM

Structure (SMILES): COc1ccccc1CNc1n[nH]c(NCc2ccccc2OC)n1 [Compound C15, N^3,N^5-bis(2-methoxybenzyl)-1H-1,2,4-triazole-3,5-diamine]
- inhibition at 10 µM (human recombinant LSD1): 74.9 ± 1.9%
- IC50 [4]: 2.2 µM
- H3K4me2 levels ([1]; 72 hours): significant, dose-dependent increase
- association of HDAC1 and CoREST [2]: disrupted the association of HDAC1 and CoREST
- inhibition of spermine oxidase compared with verlindamycin ([3]; assayed between 0.1 and 1.0 μM): improved inhibition of spermine oxidase over verlindamycin
